Columns and labels:
Dx5 cells = assay: Internucleosomal DNA laddering in Dx5 cells; format: cell-based, human
Procedure: (§1) Cell death reagents and assays. Cell viability was measured by an MTT assay as recently described (Lee et al. (1999) J. Biol. Chem. 274:13451-13455. z-VAD-fluoromethylketone (z-VAD.fmk) was obtained from Alexis Biochemicals, San Diego, Calif. The effect of z-VAD.fmk on cell viability was analyzed by annexin and propidium iodide staining followed by FACS analysis according to the manufacturer's protocol (Clontech Laboratories, Palo Alto, Calif.). The analysis of apoptosis in histologic sections was done by terminal deoxynucleotidyl transferase (TdT)-mediated d-UTP nick end labeling (TUNEL) of slides from paraffin sections of day 3 tumors harvested from the mice 24 h after the second of two daily treatments with PG490-88 or saline. TUNEL staining was done according to the manufacturer's protocol (Boehringer Mannheim, Indianapolis, Ind.) and then the histology slides were counterstained with methyl green. DNA was isolated from cells for analysis of internucleosomal DNA laddering followed by agarose gel electrophoresis and ethidium bromide staining.
In FIG. 1A, ZR-75 (breast cancer), H23 (non-small cell lung cancer) and Dx5 (MDR uterine sarcoma) cell lines were treated with PG490 at dosages shown and harvested 48 h later for analysis of cell viability by an MTT assay. […]

p53 mRNA [1] = assay: p53 mRNA by RT-PCR in MCF-7 cells; format: cell-based, human; details: MCF-7 cells treated for 16 h
Procedure: RT-PCR. RNA was prepared from MCF-7 cells using Rneasy Mini Kit from Qiagen Inc. (Valencia, Calif.). cDNAs were prepared using M-MLV reverse transcriptase (Gibco) with 2 μg of total RNA. 1/20 of total cDNA was used in limited (25 cycles) PCR reactions using Taq polymerase (Gibco). The following primer pairs were used: p53 [SEQ ID NO:1] 5′-[…]-3′ and 5′-[SEQ ID NO:2] TCTTCUTXGGCTGGGGAGAG-3′, mdm2, [SEQ ID NO:3] 5′-[…]-3′ and [SEQ ID NO:4] 5′-[…]-3′, p21, [SEQ ID NO:5] 5′-[…]-3′ and [SEQ ID NO:6] 5′-[…]-3′, and glyceraldehyde-3-phosphate dehydrogenase (GAPDH)- [SEQ ID NO:7] 5′-[…]-3′ and [SEQ ID NO:8] 5′-[…]-3′.
In the experiments shown in FIG. 5, RT-PCR was performed using 2 μg of total RNAs extracted from MCF-7 cells. […] GADPH was used as a loading control. The plasmid pBP100-GL2 which contains a p53-binding site in the mdm2 promoter was transiently transfected into MCF-7 cells, and cellular lysates were used for the luciferase assay.

HT1080 cells = assay: Apoptosis by Annexin V and Propidium Iodide staining, HT1080 cells; format: cell-based, human; set-up: unit of the concentration uncertain; details: HT1080, 20 h; PG490 5 ng/ml; CPT-11 (5 µM) alone, (5 μM) in combination; PG490 pretreatment 4 h then CPT-11 16 h
Procedure: HT1080 cells were treated as shown and harvested for analysis of apoptosis by Annexin V and Propidium Iodide staining 20 h after treatment. In experiments with a combination of PG490 and CPT-11, cells were pretreated with PG490 for 4 h followed by the addition of CPT-11 for 16 h.

p53 mRNA [2] = assay: p53 mRNA by Northern blot in HT1080 cells; format: cell-based, human
Procedure: Northern Blot Analysis. RNA was prepared from HT1080 cells using RNeasy Mini Kit from Qiagen Inc. (Valencia, Calif.). cDNAs for Northern blot analysis for p21 and p53 were prepared using RT-PCR with […] of total RNA. The following primer pairs were used: p53, (SEQ ID NO:11) 5′-[…]-3′ and (SEQ ID NO:12) 5′-[…]-3′; p21, (SEQ ID NO:13) 5′-[…]-3′ and (SEQ ID NO:14) 5′-[…]-3′; and glyceraldehyde-3-phosphate dehydrogenase, (SEQ ID NO:15) 5′-[…]-3′ and 5′-(SEQ ID NO:16) […]-3′.

[3] = room temperature
Procedure: Stock solutions of PG490-88 (1 mg/ml) were prepared by dissolution in 0.9% NaCl and sterilized by microfiltration using 0.2 μm pore size filters (Supor Acrodisc 25, Gelman Sciences, Ann Arbor, Mich.). The PG490-88 stock solutions were diluted in 0.9% NaCl for IP administration.

H23 human tumor cells = test system: H23 human tumor cells
Procedure: as §1
Nude mouse xenograft model. Female NCr nude mice were purchased from Taconic, Germantown, N.Y., and were generally 20-24 grams when used. Mice were kept in autoclaved filter-top microisolator cages with autoclaved water and sterile food ad lib. The cages were maintained in an isolator unit providing filtered air (Lab Products, Inc., Maywood, N.J.). Tumor cells were grown and harvested as described above. NCr nude mice were injected intradermally with 5×10^6 tumor cells. In some experiments, treatment was initiated on the day of tumor cell implantation. […] Mice were treated IP daily for 5 days per week.
H23 tumor cells were implanted intradermally in nude mice. When the tumors reached approximately 100 mm^3, daily IP treatment with PG490-88 was initiated. […] The data in FIG. 3 represents the measurement of H23 tumor volume on day 14 after the initiation of treatment. Nude mice bearing xenografts of H23 human tumor cells were treated daily as shown. The data represent the means and the standard errors of the means of the tumor volumes as percent of the day 0 tumor volumes for each animal measured day 3, 6, 10 and 14 days after the initiation of treatment. There were 5 mice per group.

HT1080 tumor cells = assay: Nude mouse xenograft, established HT1080 tumors; format: in vivo, nude mice; details: PG490-88 0.75 mg/kg IP days 0-5 and 7-11, CPT-11 11 mg/kg IV days 1, 5, 9
Procedure: Mice. […] Nude mouse xenograft model. HT1080 tumor cells were grown in tissue culture flasks and harvested using EDTA and trypsin. Cells were centrifuged and the concentration of viable cells was appropriately adjusted. […] Tumor size was monitored after tumor cell implantation by measuring the width, length and thickness of the tumors and using a formula to calculate the volume. […] Control mice were left untreated. […] Combination therapy mice received both PG490-88 and CPT-11 treatments.

NF-κB = NF-κB transcriptional activity in HT1080 cells; format: cell-based, human

CC(C)[C@]12O[C@H]1[C@@H]1O[C@]13[C@]1(O[C@H]1C[C@H]1C4=C(CC[C@@]13C)C(=O)OC4)[C@@H]2O [PG490, triptolide]
DNA laddering, time it began (Dx5 cells): 6 h | DNA laddering, time of maximum (Dx5 cells): ≤ 16 h | p53 mRNA level (p53 mRNA [1]): slightly reduced | Apoptotic Cells (%) (HT1080 cells): 13.5% | level of p53 mRNA (p53 mRNA [2]): not affected

CC(C)[C@]12O[C@H]1[C@@H]1O[C@]13[C@]1(O[C@H]1C[C@H]1C4=C(CC[C@@]13C)C(=O)OC4)[C@@H]2OC(=O)CCC(=O)[O-].[Na+] [PG490-88, 14-succinyl triptolide sodium salt]
half-life in mouse serum [3]: < 5 min | decrease of mean tumor size from the initial value at day 0 (H23 human tumor cells; PG490-88 0.75 mg/kg/day, day 14): 61% | decrease of tumor size relative to the day 14 vehicle control (H23 human tumor cells; PG490-88 alone 0.75 mg/kg/day, combination PG490-88 0.25 mg/kg/day plus taxol 10 mg/kg/day): 97% | inhibition of tumor growth (H23 human tumor cells; daily IP PG490-88): inhibited tumor growth in a dose-dependent manner | TUNEL staining of tumor sections (H23 human tumor cells; day 3 tumors, compared to saline-treated animals): many TUNEL-positive cells | tumor volume as % of the vehicle control (H23 human tumor cells; day 14, PG490-88 0.25 mg/kg/day, taxol 10 mg/kg/day, IP): 21% | TV Mean Day 4 (HT1080 tumor cells): 167 | TV Mean Day 7 (HT1080 tumor cells): 208 | TV Mean Day 10 (HT1080 tumor cells): 247 | TV Mean Day 14 (HT1080 tumor cells): 532 | TV Mean Day 0 (HT1080 tumor cells; baseline): 107

COc1cccc2c1C(=O)c1c(O)c3c(c(O)c1C2=O)C[C@@](O)(C(=O)CO)C[C@@H]3O[C@H]1C[C@H](N)[C@H](O)[C@H](C)O1 [doxorubicin, reference compound]
NF-κB transcriptional activity (NF-κB): did not induce
